“Also recorded” adds a separate entry of the source.
Experiments:
[1] = tested on: saliva secretion in healthy persons; experiment: Salivation-promoting effect of aqueous solutions, non-thickened or thickened with xanthan gum (Experimental Examples 1 and 2); type: in vivo, human; details: for Amount of salivation (standardized with water): average of 3 panelists, water = 1; for Salivation-promoting (saliva secretion-increasing) effect, in words: Experimental Example 1, aqueous solutions, equimolar in terms of rutin, humans; for Enhancement of the salivation-promoting effect by incorporating a thickening polysaccharide (thickening), in words: Experimental Example 2, 150 μM, 0.1 mass % xanthan gum
Protocol: Using 3 healthy persons (males, average age: 31.3 years old) as panelists, the salivation-promoting effect of the test samples prepared above was evaluated. Persons whose circadian variation of saliva secretion is relatively similar were selected as the panelists from candidates.
The evaluation was performed using 15 g of each test sample per test according to the following method. As a blank, a test was performed in the same manner using 15 g of water in place of the test samples.
(i) After 15 g of each sample is placed in the mouth and retained for 5 seconds, the sample is swallowed at one time.
(ii) After 5 seconds, absorbent cotton (37.5 mm×37.5 mm×4 mm) is placed under (the back of) the tongue, and retained for 2 minutes.
(iii) The absorbent cotton is removed from under the tongue, and the weight (g) of the cotton is measured. This weight is compared with the weight of the absorbent cotton before being placed in the mouth to calculate the difference in weight.
The above test was performed using the same test sample twice per panelist, and the average was calculated. Based on the average of each panelist, the average and standard deviation of all of the panelists were calculated.
Table 2 and FIG. 1 show the evaluation results (the average of 3 panelists). The results are shown as numerical values (relative values) standardized by setting the saliva secretion amount obtained by using the blank (water) as 1.
Test substances (enzymatically modified isoquercitrin preparation, αG rutin, and quercetin) were dissolved in drinking water, and adjusted so that the rutin content (molarity) of the structure of each compound was 150 μM (see Table 1). Further, xanthan gum was added to the aqueous solutions, so that the content thereof was 0.1 mass %, thus thickening the solutions. For comparison, xanthan gum-free aqueous solutions (an aqueous enzymatically modified isoquercitrin solution, an aqueous αG rutin solution, an aqueous quercetin solution) at a concentration of 150 μM in terms of rutin were prepared in the same manner as in Experimental Example 1.
The salivation-promoting effect of each test sample prepared above was evaluated in the same manner as in Experimental Example 1 (the panelists were also the same). Table 3 and FIG. 2 show the evaluation results (the average of 3 panelists).

saliva secretion in mice = details: cited from earlier work
[2] = 75 μM aqueous solution (in terms of rutin or molarity of quercetin), 15 g
[3] = 150 μM aqueous solution (in terms of rutin or molarity of quercetin), 15 g
[4] = 750 μM aqueous solution (in terms of rutin or molarity of quercetin), 15 g
[5] = 3750 μM aqueous solution (in terms of rutin or molarity of quercetin), 15 g
[6] = Non-thickened: 150 μM, xanthan gum-free, viscosity 1 mPa·s
[7] = Thickened: 150 μM with 0.1 mass % xanthan gum, viscosity 20 mPa·s

Compound | Amount of salivation (standardized with water) [1, 2] | Amount of salivation (standardized with water) [1, 3] | Amount of salivation (standardized with water) [1, 4] | Amount of salivation (standardized with water) [1, 5] | Salivation-promoting (saliva secretion-increasing) effect, in words [1] | Salivation-promoting (saliva secretion-increasing) effect, in words ([1]; listed as α-glucosylrutin) | Enhancement of the salivation-promoting effect by incorporating a thickening polysaccharide (thickening), in words [1] | Amount of salivation (standardized with water) [1, 6] | Amount of salivation (standardized with water) [1, 7] | Effect on hyposalivation (saliva secretion in mice; model mice having disturbance of salivary secretion created by radiation exposure) | Effect on saliva secretion (saliva secretion in mice; normal mice)
α-glucosylrutin [αG rutin] | 0.910 | 0.841 | 0.872 | 0.932 | not observed | no salivation-promoting effect | not observed | 0.841 | 0.719 | – | –
O=c1c(O)c(-c2ccc(O)c(O)c2)oc2cc(O)cc(O)c12 [quercetin] | 0.989 | 0.826 | 1.032 | 1.132 | not observed; also recorded: no salivation-promoting effect | – | not observed | 0.826 | 0.868 | reduces hyposalivation | enhances saliva secretion
